In the oligonucleotide strings, read from the 5' end, every base follows the letter of its sugar. An asterisk marks phosphorothioate; unmarked linkages are phosphodiester. Other units and linkages are bracketed, terminal groups are in braces. A string of capitals states the bases alone. e = 2'-O-(2-methoxyethyl) (MOE); [5mC] = 5-methylcytosine; d = 2'-deoxy (DNA)
Tests used:
Format in all cases: cell-based, human
T47Dp53 cells = assay: Cell cycle assay in T47Dp53 cells; conditions: 150 nM, 48 hours, relative to untreated control
Procedure: (§1) In further studies, additional cell lines were treated with oligomeric compounds targeted against miRNAs to assess the effects of each oligomeric compound on cell cycling. BJ, B16, T47D, and HeLa cells were cultured and transfected as described above. […] T47Dp53 cells are T47D cells that have been transfected with and selected for maintenance of a plasmid that expresses a wildtype copy of the p53 gene (for example, pCMV-p53; Clontech, Palo Alto, Calif.), using standard laboratory procedures. BJ cells were treated with 200 nM of each oligomeric compound, and T47D, T47Dp53, HeLa, and B16 cells were treated with 150 nM of each oligomeric compound. The human foreskin fibroblast BJ cell line represents a non-cancer cell line, while HeLa, T47D, T47Dp53 cells and the mouse melanoma cell line B16-F10 represent cancerous cell lines. For comparison, oligomeric compounds ISIS 183891 (SEQ ID NO: 847) and ISIS 285717 ([…]; herein incorporated as SEQ ID NO: 857), both targeting the kinesin-like 1/Eg5 mRNA, involved in cell cycling, were used as positive controls. The random-mer ISIS 29848 was used as a negative control. Additionally, the oligomeric compounds ISIS Number 25690 ([…]; herein incorporated as SEQ ID NO: 858) and ISIS Number 25691 ([…]; herein incorporated as SEQ ID NO: 859), targeted to nucleotides 3051-3070 and 3085-3104, respectively, of the mRNA encoding the Drosha RNase III (GenBank Accession NM_013235.2, incorporated herein as SEQ ID NO: 860) were also tested. ISIS Number 25690 and ISIS Number 25691 are 5-10-52′-MOE gapmer compounds, 20 nucleotides in length, with phosphorothioate internucleoside linkages throughout the oligomeric compound. All cytidine residues are 5-methylcytidines. Transfections were performed using the methods described herein. Cells were prepared for flow cytometry 48-hours after oligonucleotide treatment. Results of these studies are shown in Table 35, where data are expressed as percentage of cells in each phase relative to the untreated control cells in that phase.

BJ cells = assay: Cell cycle assay in BJ cells; conditions: 200 nM, 48 hours, relative to untreated control
Procedure: BJ cells were routinely cultured in MEM high glucose with 2 mM L-glutamine and Earle's BSS adjusted to contain 1.5 g/L sodium bicarbonate and supplemented with 10% fetal bovine serum, 0.1 mM non-essential amino acids and 1.0 mM sodium pyruvate (all media and supplements from Invitrogen Life Technologies, Carlsbad, Calif.). B16-F10 cells were routinely cultured in DMEM high glucose (Invitrogen Life Technologies, Carlsbad, Calif.) supplemented with 10% fetal bovine serum (Invitrogen Life Technologies, Carlsbad, Calif.). T47D cells were cultured in DMEM High glucose media (Invitrogen Life Technologies, Carlsbad, Calif.) supplemented with 10% fetal bovine serum. […] Cells were plated on collagen-coated 24-well plates (Falcon-Primaria #3047, BD Biosciences, Bedford, Mass.) at approximately 50,000 cells per well and allowed to attach to wells overnight.
as §1

[1] = tested on: differentiated adipocytes; assay: Hallmark genes and triglycerides in differentiated adipocytes; conditions: Table 28; differentiated adipocytes transfected day nine post-differentiation; 250 nM oligonucleotide
Text: The effect of the oligomeric compounds of the present invention targeting miRNAs on the expression of markers of cellular differentiation was examined in differentiated adipocytes.
As previously described, the HSL, aP2, Glut4, and PPARγ genes play important rolls in the uptake of glucose and the metabolism and utilization of fats. Also as previously described, an increase in triglyceride content is another well-established marker for adipocyte differentiation. Human white preadipocytes (Zen-Bio Inc., Research Triangle Park, N.C.) were grown in preadipocyte media (ZenBio Inc.). After the cells reached confluence (approximately three days), they were exposed to differentiation media (Zen-Bio, Inc.) containing a PPAR-γ agonist, IBMX, dexamethasone, and insulin for three days. Cells were then fed Adipocyte Medium (Zen-Bio, Inc.), which was replaced at 2 to 3 day intervals. One day before transfection, 96-well plates were seeded with 3000 cells/well. Cells were then transfected on day nine post-differentiation, according to standard published procedures with 250 nM oligonucleotide in LIPOFECTIN™ (Invitrogen Corporation, Carlsbad, Calif.) (Monia et al., J. Biol. Chem. 1993 268(19):14514-22). Oligomeric compounds were tested in triplicate on each 96-well plate, and the effect of TNF-α, known to inhibit adipocyte differentiation, was also measured in triplicate. Oligomeric compound treatments and transfectant-only negative controls may be measured up to six times per plate. On day twelve post-differentiation, cells were washed and lysed at room temperature, and the expression of the four hallmark genes, HSL, aP2, Glut4, and PPARγ, as well as triglyceride (TG) accumulation were measured in adipocytes transfected with the uniform 2′-MOE phosphorothioate (PS) previously described in Example 13 as well as the chimeric gapmer oligomeric compounds targeting the mir-143 miRNA and the mir-143 pri-miRNA described in Example 16. On day twelve post-differentiation, cells were lysed in a guanadinium-containing buffer and total RNA was harvested. The amount of total RNA in each sample was determined using a Ribogreen Assay (Molecular Probes, Eugene, Oreg.). Real-time PCR was performed on the total RNA using primer/probe sets for the adipocyte differentiation hallmark genes Glut4, HSL, aP2, and PPARγ. Triglyceride levels as well as mRNA levels for each of the four adipocyte differentiation hallmark genes are expressed relative to control levels (control=treatment with ISIS-29848 (SEQ ID NO: 737)).

| Substance | % cells in cell cycle phase G1 (T47Dp53 cells) [%] | % cells in cell cycle phase G2/M (T47Dp53 cells) [%] | % cells in cell cycle phase S (T47Dp53 cells) [%] | % cells in cell cycle phase aneuploid (T47Dp53 cells) [%] | % cells in cell cycle phase subG1 (T47Dp53 cells) [%] | % cells in cell cycle phase G1 (BJ cells) [%] | % cells in cell cycle phase G2/M (BJ cells) [%] | % cells in cell cycle phase S (BJ cells) [%] | % cells in cell cycle phase aneuploid (BJ cells) [%] | % cells in cell cycle phase subG1 (BJ cells) [%] | Glut4 [1] | HSL [1] | PPAR gamma [1] | TG [1] | aP2 [1] |
| --- | --- | --- | --- | --- | --- | --- | --- | --- | --- | --- | --- | --- | --- | --- | --- |
| 327902 (antisense eG*eG*e[5mC]*eT*eG*eT*e[5mC]*eA*eA*eT*eT*e[5mC]*eA*eT*eA*eG*eG*eT*e[5mC]*eA*eG) [compound 327902] | 100 | 102 | 98 | 97 | 155 | 99 | 108 | 88 | 82 | 91 | – | – | – | – | – |
| 327905 (antisense e[5mC]*eA*eG*eA*e[5mC]*eT*e[5mC]*e[5mC]*eG*eG*eT*eG*eG*eA*eA*eT*eG*eA*eA*eG*eG*eA) [compound 327905] | 112 | 104 | 80 | 103 | 109 | 100 | 109 | 77 | 102 | 105 | 0.58 | 0.65 | 1.31 | 1.18 | 0.85 |
| 328759 (antisense eG*eA*eG*eG*eG*dA*dT*dT*dG*dT*dA*dT*dG*dA*dA*e[5mC]*eA*eT*e[5mC]*eT) [compound 328759] | 99 | 108 | 93 | 109 | 423 | 91 | 141 | 117 | 160 | 164 | – | – | – | – | – |
